Laboratory results as given in patent US9738634B2, “Heterocyclic amide compound and herbicide” (SYNGENTA PARTICIPATIONS AG, priority 2013, dated 2017).

Legend:
Assay type in all cases: in vivo
Settings in all cases: treatment dosage 320 g/ha
[1] = tested on: barnyard grass; assay: Test Example 1: weedkilling efficacy, preemergent weed treatment in the submerged state; A: barnyard grass
Outline: (§1)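 Pre-emergence application onto floodwater (4 cm, alluvial soil) on the day of sowing, dose expressed as g/ha from diluted emulsion formulation. Weeds sown with 2.5-leaf transplanted rice as crop; plants held at 25–30 °C in greenhouse and scored against assessment criteria after 3 weeks.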

[2] = tested on: bulrush; assay: Test Example 1: weedkilling efficacy, preemergent weed treatment in the submerged state; B: bulrush
Outline: as §1

[3] = tested on: oval-leafed pondweed; assay: Test Example 1: weedkilling efficacy, preemergent weed treatment in the submerged state; C: oval-leafed pondweed
Outline: as §1

[4] = tested on: transplanted rice; assay: Test Example 1: preemergent weed treatment in the submerged state, effect on crop; a: transplanted rice
Outline: as §1

[5] = tested on: barnyard grass; assay: Test Example 2: weedkilling efficacy, growth period weed treatment in the submerged state; A: barnyard grass
Outline: (§2)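 Weeds treated at the 1-2 leaf stage by application of diluted emulsion onto floodwater (4 cm depth, alluvial soil) at specified g/ha. Grown in greenhouse at 25 to 30° C; herbicidal effect rated three weeks after treatment.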

[6] = tested on: bulrush; assay: Test Example 2: weedkilling efficacy, growth period weed treatment in the submerged state; B: bulrush
Outline: as §2

[7] = tested on: oval-leafed pondweed; assay: Test Example 2: weedkilling efficacy, growth period weed treatment in the submerged state; C: oval-leafed pondweed
Outline: as §2

[8] = tested on: crabgrass; assay: Test Example 3: weedkilling efficacy through soil treatment; D: crabgrass
Outline: (§3)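 Crop and weed responses were judged three weeks after a uniform surface spray of the water-diluted emulsion at the given g/ha rate. Seeds sat beneath about 1.5 cm of sterilized diluvial soil, and boxes stood in a greenhouse at 25 to 30° C.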

[9] = tested on: green foxtail; assay: Test Example 3: weedkilling efficacy through soil treatment; E: green foxtail
Outline: as §3

[10] = tested on: barnyard grass; assay: Test Example 3: weedkilling efficacy through soil treatment; F: barnyard grass
Outline: as §3

[11] = tested on: wild oat; assay: Test Example 3: weedkilling efficacy through soil treatment; G: wild oat
Outline: as §3

[12] = tested on: black-grass; assay: Test Example 3: weedkilling efficacy through soil treatment; H: black-grass
Outline: as §3

[13] = tested on: Italian ryegrass; assay: Test Example 3: weedkilling efficacy through soil treatment; I: Italian ryegrass
Outline: as §3

[14] = tested on: common wind-grass; assay: Test Example 3: weedkilling efficacy through soil treatment; J: common wind-grass
Outline: as §3

[15] = tested on: Indian mallow; assay: Test Example 3: weedkilling efficacy through soil treatment; K: Indian mallow
Outline: as §3

[16] = tested on: redroot pigweed; assay: Test Example 3: weedkilling efficacy through soil treatment; L: redroot pigweed
Outline: as §3

[17] = tested on: fig-leafed goosefoot; assay: Test Example 3: weedkilling efficacy through soil treatment; M: fig-leafed goosefoot
Outline: as §3

[18] = tested on: chickweed; assay: Test Example 3: weedkilling efficacy through soil treatment; N: chickweed
Outline: as §3

[19] = tested on: catchweed; assay: Test Example 3: weedkilling efficacy through soil treatment; O: catchweed
Outline: as §3

[20] = tested on: birds-eye speedwell; assay: Test Example 3: weedkilling efficacy through soil treatment; p: birds-eye speedwell
Outline: as §3

[21] = tested on: directly sown rice; assay: Test Example 3: soil treatment, effect on crop; b: directly sown rice
Outline: as §3

[22] = tested on: corn; assay: Test Example 3: soil treatment, effect on crop; c: corn
Outline: as §3

[23] = tested on: soybean; assay: Test Example 3: soil treatment, effect on crop; d: soybean
Outline: as §3

[24] = tested on: wheat; assay: Test Example 3: soil treatment, effect on crop; e: wheat
Outline: as §3

[25] = tested on: beet; assay: Test Example 3: soil treatment, effect on crop; f: beet
Outline: as §3

[26] = tested on: rapeseed; assay: Test Example 3: soil treatment, effect on crop; g: rapeseed
Outline: as §3

[27] = tested on: crabgrass; assay: Test Example 4: weedkilling efficacy by foliar treatment; D: crabgrass
Outline: (§4)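 Seeds are spot-sown into sterilized diluvial soil and covered with about 1.5 cm of soil. After 14 days' greenhouse growth at 25 to 30° C, plants are sprayed on stems and leaves with diluted emulsion at the stated g/ha rate, then scored at 3 weeks.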

[28] = tested on: green foxtail; assay: Test Example 4: weedkilling efficacy by foliar treatment; E: green foxtail
Outline: as §4

[29] = tested on: barnyard grass; assay: Test Example 4: weedkilling efficacy by foliar treatment; F: barnyard grass
Outline: as §4

[30] = tested on: wild oat; assay: Test Example 4: weedkilling efficacy by foliar treatment; G: wild oat
Outline: as §4

[31] = tested on: black-grass; assay: Test Example 4: weedkilling efficacy by foliar treatment; H: black-grass
Outline: as §4

[32] = tested on: Italian ryegrass; assay: Test Example 4: weedkilling efficacy by foliar treatment; I: Italian ryegrass
Outline: as §4

[33] = tested on: common wind-grass; assay: Test Example 4: weedkilling efficacy by foliar treatment; J: common wind-grass
Outline: as §4

[34] = tested on: Indian mallow; assay: Test Example 4: weedkilling efficacy by foliar treatment; K: Indian mallow
Outline: as §4

[35] = tested on: redroot pigweed; assay: Test Example 4: weedkilling efficacy by foliar treatment; L: redroot pigweed
Outline: as §4

[36] = tested on: fig-leafed goosefoot; assay: Test Example 4: weedkilling efficacy by foliar treatment; M: fig-leafed goosefoot
Outline: as §4

[37] = tested on: chickweed; assay: Test Example 4: weedkilling efficacy by foliar treatment; N: chickweed
Outline: as §4

[38] = tested on: catchweed; assay: Test Example 4: weedkilling efficacy by foliar treatment; O: catchweed
Outline: as §4

[39] = tested on: birds-eye speedwell; assay: Test Example 4: weedkilling efficacy by foliar treatment; p: birds-eye speedwell
Outline: as §4

[40] = tested on: directly sown rice; assay: Test Example 4: foliar treatment, effect on crop; b: directly sown rice
Outline: as §4

[41] = tested on: corn; assay: Test Example 4: foliar treatment, effect on crop; c: corn
Outline: as §4

[42] = tested on: soybean; assay: Test Example 4: foliar treatment, effect on crop; d: soybean
Outline: as §4

[43] = tested on: wheat; assay: Test Example 4: foliar treatment, effect on crop; e: wheat
Outline: as §4

[44] = tested on: beet; assay: Test Example 4: foliar treatment, effect on crop; f: beet
Outline: as §4

[45] = tested on: rapeseed; assay: Test Example 4: foliar treatment, effect on crop; g: rapeseed
Outline: as §4

**Q.** How did the “A (barnyard grass) weedkilling efficacy grade” value [1] turn out when CC1=C(c2ccccc2)C(=O)N(C(C)(C)C(=O)Nc2cc(C(F)F)cc(Cl)n2)CO1 [B-2-44] was run?
**A.** 5 (weed kill ratio 90% or more, (practically complete withering))

**Q.** What about the “B (bulrush) weedkilling efficacy grade” value [2] of the same compound?
**A.** 5 (weed kill ratio 90% or more, (practically complete withering))

**Q.** And the “C (oval-leafed pondweed) weedkilling efficacy grade” value [3]?
**A.** 5 (weed kill ratio 90% or more, (practically complete withering))

**Q.** And the “a (transplanted rice) effect on crop grade” value [4]?
**A.** 5 (weed kill ratio 90% or more, (practically complete withering))

**Q.** And the “A (barnyard grass) weedkilling efficacy grade” value [5]?
**A.** 5 (weed kill ratio 90% or more, (practically complete withering))

**Q.** What about the “B (bulrush) weedkilling efficacy grade” value [6] of the same compound?
**A.** 5 (weed kill ratio 90% or more, (practically complete withering))

**Q.** And the “C (oval-leafed pondweed) weedkilling efficacy grade” value [7]?
**A.** 5 (weed kill ratio 90% or more, (practically complete withering))

**Q.** And the “D (crabgrass) weedkilling efficacy grade” value [8]?
**A.** 5 (weed kill ratio 90% or more, (practically complete withering))

**Q.** And the “E (green foxtail) weedkilling efficacy grade” value [9]?
**A.** 5 (weed kill ratio 90% or more, (practically complete withering))

**Q.** And the “F (barnyard grass) weedkilling efficacy grade” value [10]?
**A.** 5 (weed kill ratio 90% or more, (practically complete withering))

**Q.** What about the “G (wild oat) weedkilling efficacy grade” value [11] of the same compound?
**A.** 2 (weed kill ratio 20% or more, less than 40%)

**Q.** And the “H (black-grass) weedkilling efficacy grade” value [12]?
**A.** 5 (weed kill ratio 90% or more, (practically complete withering))

**Q.** And the “I (Italian ryegrass) weedkilling efficacy grade” value [13]?
**A.** 5 (weed kill ratio 90% or more, (practically complete withering))

**Q.** And the “J (common wind-grass) weedkilling efficacy grade” value [14]?
**A.** 5 (weed kill ratio 90% or more, (practically complete withering))

**Q.** What about the “K (Indian mallow) weedkilling efficacy grade” value [15] of the same compound?
**A.** 0 (weed kill ratio 5% or less (practically no effect))

**Q.** And the “L (redroot pigweed) weedkilling efficacy grade” value [16]?
**A.** 0 (weed kill ratio 5% or less (practically no effect))

**Q.** And the “M (fig-leafed goosefoot) weedkilling efficacy grade” value [17]?
**A.** 3 (weed kill ratio 40% or more, less than 70%)

**Q.** And the “N (chickweed) weedkilling efficacy grade” value [18]?
**A.** 3 (weed kill ratio 40% or more, less than 70%)

**Q.** What about the “O (catchweed) weedkilling efficacy grade” value [19] of the same compound?
**A.** 0 (weed kill ratio 5% or less (practically no effect))

**Q.** What about the “P (birds-eye speedwell) weedkilling efficacy grade” value [20] of the same compound?
**A.** 4 (weed kill ratio 70% or more, less than 90%)

**Q.** What about the “b (directly sown rice) effect on crop grade” value [21] of the same compound?
**A.** 3 (weed kill ratio 40% or more, less than 70%)

**Q.** What about the “c (corn) effect on crop grade” value [22] of the same compound?
**A.** 0 (weed kill ratio 5% or less (practically no effect))

**Q.** And the “d (soybean) effect on crop grade” value [23]?
**A.** 0 (weed kill ratio 5% or less (practically no effect))

**Q.** What about the “e (wheat) effect on crop grade” value [24] of the same compound?
**A.** 1 (weed kill ratio 5% or more, less than 20%)

**Q.** And the “f (beet) effect on crop grade” value [25]?
**A.** 3 (weed kill ratio 40% or more, less than 70%)

**Q.** What about the “g (rapeseed) effect on crop grade” value [26] of the same compound?
**A.** 4 (weed kill ratio 70% or more, less than 90%)

**Q.** What about the “D (crabgrass) weedkilling efficacy grade” value [27] of the same compound?
**A.** 4 (weed kill ratio 70% or more, less than 90%)

**Q.** What about the “E (green foxtail) weedkilling efficacy grade” value [28] of the same compound?
**A.** 5 (weed kill ratio 90% or more, (practically complete withering))

**Q.** What about the “F (barnyard grass) weedkilling efficacy grade” value [29] of the same compound?
**A.** 4 (weed kill ratio 70% or more, less than 90%)

**Q.** And the “G (wild oat) weedkilling efficacy grade” value [30]?
**A.** 3 (weed kill ratio 40% or more, less than 70%)

**Q.** What about the “H (black-grass) weedkilling efficacy grade” value [31] of the same compound?
**A.** 5 (weed kill ratio 90% or more, (practically complete withering))

**Q.** What about the “I (Italian ryegrass) weedkilling efficacy grade” value [32] of the same compound?
**A.** 5 (weed kill ratio 90% or more, (practically complete withering))

**Q.** What about the “J (common wind-grass) weedkilling efficacy grade” value [33] of the same compound?
**A.** 5 (weed kill ratio 90% or more, (practically complete withering))

**Q.** And the “K (Indian mallow) weedkilling efficacy grade” value [34]?
**A.** 4 (weed kill ratio 70% or more, less than 90%)

**Q.** And the “L (redroot pigweed) weedkilling efficacy grade” value [35]?
**A.** 3 (weed kill ratio 40% or more, less than 70%)

**Q.** And the “M (fig-leafed goosefoot) weedkilling efficacy grade” value [36]?
**A.** 3 (weed kill ratio 40% or more, less than 70%)

**Q.** What about the “N (chickweed) weedkilling efficacy grade” value [37] of the same compound?
**A.** 4 (weed kill ratio 70% or more, less than 90%)

**Q.** What about the “O (catchweed) weedkilling efficacy grade” value [38] of the same compound?
**A.** 5 (weed kill ratio 90% or more, (practically complete withering))

**Q.** And the “P (birds-eye speedwell) weedkilling efficacy grade” value [39]?
**A.** 5 (weed kill ratio 90% or more, (practically complete withering))

**Q.** What about the “b (directly sown rice) effect on crop grade” value [40] of the same compound?
**A.** 3 (weed kill ratio 40% or more, less than 70%)

**Q.** What about the “c (corn) effect on crop grade” value [41] of the same compound?
**A.** 1 (weed kill ratio 5% or more, less than 20%)

**Q.** And the “d (soybean) effect on crop grade” value [42]?
**A.** 4 (weed kill ratio 70% or more, less than 90%)

**Q.** And the “e (wheat) effect on crop grade” value [43]?
**A.** 4 (weed kill ratio 70% or more, less than 90%)

**Q.** And the “f (beet) effect on crop grade” value [44]?
**A.** 3 (weed kill ratio 40% or more, less than 70%)

**Q.** What about the “g (rapeseed) effect on crop grade” value [45] of the same compound?
**A.** 5 (weed kill ratio 90% or more, (practically complete withering))
